{"source": "paper PMC10202811", "about": "(Nature Medicine, 2023)", "assay": "Plasma pharmacokinetics of lorlatinib at steady state (LC-MS/MS, non-compartmental analysis)", "format": "in vivo, human", "conditions": "human, plasma, oral; for Cmax: read-out: Cmax; for Tmax: read-out: Tmax", "description": "Lorlatinib was isolated from human plasma by a liquid-iquid extraction procedure. […] A linear-log trapezoidal method was used [NT] A best-fit method was used to estimate terminal elimination and to extrapolate any plasma concentration versus time profiles to compute [NT].", "key": {"[1]": {"conditions": "60 mg/m2, Cohort A1, 60 mg/m2 per dose, C1D15, individual patient"}, "[2]": {"conditions": "60 mg/m2, Cycle 1 Day 1, Cohort A1, 60 mg/m2 per dose, individual patients"}, "[3]": {"conditions": "60 mg/m2, Cycle 1 Day 15, Cohort A1, 60 mg/m2 per dose, individual patients"}, "[4]": {"conditions": "75 mg/m2, Cohort A1, 75 mg/m2 per dose, C1D15, Geometric Mean, N 3"}, "[5]": {"conditions": "75 mg/m2, Cohort A1, 75 mg/m2 per dose, C1D15, Median, N 3"}, "[6]": {"conditions": "75 mg/m2, Cycle 1 Day 1, Cohort A1, 75 mg/m2 per dose, individual patients"}, "[7]": {"conditions": "95 mg/m2, Cohort A1, 95 mg/m2 per dose, C1D15, Geometric Mean, N 9"}, "[8]": {"conditions": "95 mg/m2, Cohort A1, 95 mg/m2 per dose, C1D15, Median, N 9"}, "[9]": {"conditions": "95 mg/m2, Cohort B2, 95 mg/m2 per dose, C1D15, Geometric Mean, N 2"}, "[10]": {"conditions": "95 mg/m2, Cohort B2, 95 mg/m2 per dose, C1D15, Median, N 2"}, "[11]": {"conditions": "95 mg/m2, Cohort B2, 95 mg/m2 per dose, C1D15, individual patient"}, "[12]": {"conditions": "95 mg/m2, Cycle 1 Day 1, Cohort A1, 95 mg/m2 per dose"}, "[13]": {"conditions": "95 mg/m2, Cycle 1 Day 1, Cohort B2, 95 mg/m2 per dose"}, "[14]": {"conditions": "95 mg/m2, Cycle 1 Day 1, Cohort A1, 95 mg/m2 per dose, individual patients"}}, "note": "Read-outs that look alike come from different tables or passages of the source.", "data": [{"molecule": "C[C@H]1Oc2cc(cnc2N)-c2c(nn(C)c2C#N)CN(C)C(=O)c2ccc(F)cc21", "note": "[Lorlatinib, (10R)-7-amino-12-fluoro-2,10,16-trimethyl-15-oxo-10,15,16,17-tetrahydro-2H-8,4-(metheno)pyrazolo[4,3-h][2,5,11]-benzoxadiazacyclotetradecine-3-carbonitrile]", "values": [{"measurement": "Cmax", "setting": "[1]", "value": 623, "unit": "ng/mL"}, {"measurement": "Tmax", "setting": "[1]", "value": 2, "unit": "h"}, {"measurement": "AUC(0-t)", "setting": "[2]", "value": 3960, "unit": "ng·h/mL"}, {"measurement": "MRT last", "setting": "[2]", "value": 6.96, "unit": "h"}, {"measurement": "Cmax", "setting": "[2]", "value": 761, "unit": "ng/mL"}, {"measurement": "Tmax", "setting": "[2]", "value": 1, "unit": "h"}, {"measurement": "AUC(0-t)", "setting": "[3]", "value": 4140, "unit": "ng·h/mL"}, {"measurement": "AUC(0-inf)", "setting": "60 mg/m2, Cycle 1 Day 15, Cohort A1, 60 mg/m2 per dose, individual patients, read-out: AUCINF_obs", "value": 5050, "unit": "ng·h/mL"}, {"measurement": "AUC(0-inf)", "setting": "60 mg/m2, Cycle 1 Day 15, Cohort A1, 60 mg/m2 per dose, individual patients, read-out: AUCINF_pred", "value": 5040, "unit": "ng·h/mL"}, {"measurement": "AUC", "setting": "60 mg/m2, Cycle 1 Day 15, Cohort A1, 60 mg/m2 per dose, individual patients, read-out: AUC_TAU", "value": 4140, "unit": "ng·h/mL"}, {"measurement": "AUC", "setting": "60 mg/m2, Cycle 1 Day 15, Cohort A1, 60 mg/m2 per dose, individual patients, read-out: AUCall", "value": 4140, "unit": "ng·h/mL"}, {"measurement": "Cmax", "setting": "[3]", "value": 623, "unit": "ng/mL"}, {"measurement": "MRT inf", "setting": "60 mg/m2, Cycle 1 Day 15, Cohort A1, 60 mg/m2 per dose, individual patients, read-out: MRTINF_obs", "value": 13, "unit": "h"}, {"measurement": "MRT inf", "setting": "60 mg/m2, Cycle 1 Day 15, Cohort A1, 60 mg/m2 per dose, individual patients, read-out: MRTINF_pred", "value": 12.9, "unit": "h"}, {"measurement": "Tmax", "setting": "[3]", "value": 2, "unit": "h"}, {"measurement": "AUC", "setting": "60 mg/m2, steady state, Cohort A1, 60 mg/m^2 QD, (CV), read-out: AUCtau", "value": 3930, "unit": "ng·h/mL"}, {"measurement": "Cmax", "setting": "60 mg/m2, steady state, Cohort A1, 60 mg/m^2 QD, (CV)", "value": 492, "unit": "ng/mL"}, {"measurement": "Tmax", "setting": "60 mg/m2, steady state, Cohort A1, 60 mg/m^2 QD", "value": 2, "unit": "h"}, {"measurement": "AUC", "setting": "75 mg/m2, Cohort A1, 75 mg/m2 per dose, C1D15, Geometric Mean, N 3, read-out: AUC_TAU", "value": 4150, "unit": "ng·h/mL"}, {"measurement": "Cmax", "setting": "[4]", "value": 645, "unit": "ng/mL"}, {"measurement": "Tmax", "setting": "[4]", "value": 2.29, "unit": "h"}, {"measurement": "AUC", "setting": "75 mg/m2, Cohort A1, 75 mg/m2 per dose, C1D15, Median, N 3, read-out: AUC_TAU", "value": 4020, "unit": "ng·h/mL"}, {"measurement": "Cmax", "setting": "[5]", "value": 659, "unit": "ng/mL"}, {"measurement": "Tmax", "setting": "[5]", "value": 2, "unit": "h"}, {"measurement": "Cmax", "setting": "75 mg/m2, Cohort A1, 75 mg/m2 per dose, C1D15, individual patient", "value": 659, "unit": "ng/mL"}, {"measurement": "AUC(0-t)", "setting": "[6]", "value": 6740, "unit": "ng·h/mL"}, {"measurement": "MRT last", "setting": "[6]", "value": 7.77, "unit": "h"}, {"measurement": "AUC", "setting": "75 mg/m2, Cycle 1 Day 1, Cohort A1, 75 mg/m2 per dose, individual patients, read-out: AUCall", "value": 6740, "unit": "ng·h/mL"}, {"measurement": "Cmax", "setting": "[6]", "value": 961, "unit": "ng/mL"}, {"measurement": "Tmax", "setting": "[6]", "value": 1, "unit": "h"}, {"measurement": "AUC(0-inf)", "setting": "75 mg/m2, Cycle 1 Day 15, Cohort A1, 75 mg/m2 per dose, individual patients, read-out: AUCINF_obs", "value": 4500, "unit": "ng·h/mL"}, {"measurement": "AUC(0-inf)", "setting": "75 mg/m2, Cycle 1 Day 15, Cohort A1, 75 mg/m2 per dose, individual patients, read-out: AUCINF_pred", "value": 4490, "unit": "ng·h/mL"}, {"measurement": "Cmax", "setting": "75 mg/m2, Cycle 1 Day 15, Cohort A1, 75 mg/m2 per dose, individual patients", "value": 659, "unit": "ng/mL"}, {"measurement": "MRT inf", "setting": "75 mg/m2, Cycle 1 Day 15, Cohort A1, 75 mg/m2 per dose, individual patients, read-out: MRTINF_obs", "value": 10.3, "unit": "h"}, {"measurement": "MRT inf", "setting": "75 mg/m2, Cycle 1 Day 15, Cohort A1, 75 mg/m2 per dose, individual patients, read-out: MRTINF_pred", "value": 10.3, "unit": "h"}, {"measurement": "AUC", "setting": "75 mg/m2, steady state, Cohort A1, 75 mg/m^2 QD, (CV), read-out: AUCtau", "value": 4160, "unit": "ng·h/mL"}, {"measurement": "Cmax", "setting": "75 mg/m2, steady state, Cohort A1, 75 mg/m^2 QD, (CV)", "value": 645, "unit": "ng/mL"}, {"measurement": "Tmax", "setting": "75 mg/m2, steady state, Cohort A1, 75 mg/m^2 QD", "value": 2, "unit": "h"}, {"measurement": "AUC", "setting": "95 mg/m2, Cohort A1, 95 mg/m2 per dose, C1D15, Geometric Mean, N 9, read-out: AUC_TAU", "value": 7470, "unit": "ng·h/mL"}, {"measurement": "Cmax", "setting": "[7]", "value": 1020, "unit": "ng/mL"}, {"measurement": "Tmax", "setting": "[7]", "value": 1.47, "unit": "h"}, {"measurement": "AUC", "setting": "95 mg/m2, Cohort A1, 95 mg/m2 per dose, C1D15, Median, N 9, read-out: AUC_TAU", "value": 6910, "unit": "ng·h/mL"}, {"measurement": "Cmax", "setting": "[8]", "value": 1100, "unit": "ng/mL"}, {"measurement": "Tmax", "setting": "[8]", "value": 1, "unit": "h"}, {"measurement": "AUC", "setting": "95 mg/m2, Cohort B2, 95 mg/m2 per dose, C1D15, Geometric Mean, N 2, read-out: AUC_TAU", "value": 6690, "unit": "ng·h/mL"}, {"measurement": "Cmax", "setting": "[9]", "value": 817, "unit": "ng/mL"}, {"measurement": "Tmax", "setting": "[9]", "value": 2.83, "unit": "h"}, {"measurement": "AUC", "setting": "95 mg/m2, Cohort B2, 95 mg/m2 per dose, C1D15, Median, N 2, read-out: AUC_TAU", "value": 6810, "unit": "ng·h/mL"}, {"measurement": "Cmax", "setting": "[10]", "value": 824, "unit": "ng/mL"}, {"measurement": "Tmax", "setting": "[10]", "value": 3, "unit": "h"}, {"measurement": "AUC", "setting": "95 mg/m2, Cohort B2, 95 mg/m2 per dose, C1D15, individual patient, read-out: AUC_TAU", "value": 8100, "unit": "ng·h/mL"}, {"measurement": "Cmax", "setting": "[11]", "value": 926, "unit": "ng/mL"}, {"measurement": "Tmax", "setting": "[11]", "value": 4, "unit": "h"}, {"measurement": "MRT last", "setting": "[12]", "value": 7.38, "unit": "h"}, {"measurement": "Tmax", "setting": "[12]", "value": 1, "unit": "h"}, {"measurement": "Cmax", "setting": "[13]", "value": 914, "unit": "ng/mL"}, {"measurement": "Tmax", "setting": "[13]", "value": 2, "unit": "h"}, {"measurement": "MRT last", "setting": "[14]", "value": 9.06, "unit": "h"}, {"measurement": "Tmax", "setting": "[14]", "value": 2, "unit": "h"}, {"measurement": "Tmax", "setting": "95 mg/m2, Cycle 1 Day 15, Cohort A1, 95 mg/m2 per dose", "value": 1, "unit": "h"}]}]}
